Counter-ions that a name gives are not always drawn. Some results are limits rather than exact numbers.

For 27 molecules, Ki results are on record in patent US7935719B2, “N-substituted-azacyclylamines as histamine-3 antagonists” (Wyeth LLC, priority 2006, dated 2011).

Chain of Histamine Receptor H3 (Q9Y5N1 whole entry): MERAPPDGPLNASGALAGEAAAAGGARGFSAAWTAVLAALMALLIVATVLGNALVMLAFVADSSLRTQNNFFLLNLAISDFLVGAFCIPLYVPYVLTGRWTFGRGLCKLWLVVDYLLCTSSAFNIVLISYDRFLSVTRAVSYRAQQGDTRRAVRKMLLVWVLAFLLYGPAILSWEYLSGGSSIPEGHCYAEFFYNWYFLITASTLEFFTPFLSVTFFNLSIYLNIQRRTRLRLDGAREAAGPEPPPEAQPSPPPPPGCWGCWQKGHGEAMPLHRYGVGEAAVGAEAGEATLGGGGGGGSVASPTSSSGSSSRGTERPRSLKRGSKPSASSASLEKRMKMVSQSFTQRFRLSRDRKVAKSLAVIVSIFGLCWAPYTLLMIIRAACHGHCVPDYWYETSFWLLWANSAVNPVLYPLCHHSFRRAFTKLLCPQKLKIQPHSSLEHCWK

The target in this test is Histamine Receptor H3 (Homo sapiens, UniProt Q9Y5N1). The test is described as follows: Methyl histamine binding in human histamine H3 receptor cell line. Set-up: expressed in transfected cells; host or cells: HEK293T. The conditions noted are these: membranes of stably transfected HEK293T cells, radioligand 1 nM, Ki from IC50 by Cheng-Prusoff. Here is the method:
Evaluation of Methyl Histamine Binding in Human Histamine H3 Receptor Cell Line
The affinity of test compounds for the histamine 3 (H3) receptor is evaluated in the following manner. […] Cells are scraped from the plate, transferred to centrifuge tubes, washed one time in PBS by centrifugation in a Sorvall RT7 Plus centrifuge (2000 rpm 10 minutes, 4° C.). The resulting pellets are stored at −80° C. until ready for use. Cells are re-suspended in buffer (50 mM Tris pH=7.5) and placed in a Dounce homogenizer, douncing ten times to homogenize cells. The homogenate is spun down by centrifugation (Sorvall RT7 Plus, 1800 rpm 10 minutes, 4° C.). The supernatant is placed in a Corex tube and spun down by centrifugation (Sorvall RC 5c Plus, 17,000 rpm 20 minutes, 4° C.). The pellet is resuspended in buffer (50 mM Tris, pH 7.5). Protein concentration (ug/ul) is determined using the Micro-BCA Protein Determination. The binding assay is set up in a 96 well microtiter plate in a total volume of 250 uL. Non-specific binding is determined in the presence of 10 uM clobenpropit. The final radioligand concentration is 1 nM. The test compound is serially diluted using the Beckman Biomek2000 to a final approximate range of 100 uM to 100 pM. Membranes are suspended in buffer, homogenized in 2 bursts of ten seconds using a Vitris mechanical homogenizer set at power setting 5. Ten μg of membranes are added to each well. Following a one hour incubation at 30° C., the reaction is terminated by the addition of ice cold buffer and rapid filtration with a Packard Filtermate Harvester through a GF/B filter pre-soaked with 1% PEI for one hour. The plate is dried for one hour at 37° C. and 60 μL Microscint Scintillant is added to each well. The CPM per well is measured on a Packard Top Count NXT. Ki values are determined in nM. […] CPM values are expressed as % specific binding and plotted vs compound concentration. A curve is fitted using a four-parameter logistic fit and the IC50 value is determined. The Ki is calculated from this using the Cheng-Prusoff equation: […]=IC50/1+(L/Kd) where L=concentration of free radioligand used in the assay, and Kd is the dissociation constant of the radioligand for the receptor. L is determined for each experiment by counting an aliquot of the diluted radioligand (corresponding to that added to each well) and the Kd has previously been determined under identical conditions for this cell line/radioligand.
As a reminder, the Ki is the dissociation constant of the complex between target and ligand, obtained from inhibition or displacement. Low values mean a stronger hold on the target, high ones a looser hold on the target. For the molecule `CC1CCN([C@H]2CCN(C(=O)c3ccc(-n4cnc5ccccc54)cc3)C2)CC1` [Example 9, 1-(4-{[(3S)-3-(4-methylpiperidin-1-yl)pyrrolidin-1-yl]carbonyl}phenyl)-1H-benzimidazole], the Ki is greater than 100 nM.

For the molecule `Cc1cc2ccccc2n1-c1ccc(C(=O)N2CC[C@H](N3CCCC3)C2)cc1` [Example 38, (3′S)-1′-[4-(2-methyl-1H-indol-1-yl)benzoyl]-1,3′-bipyrrolidine], the inhibition constant (Ki) was less than 10 nM.

Regarding `O=C(c1ccc(-n2cc3ccc(F)cc3n2)cc1)N1CC[C@H](N2CCCC2)C1` [Example 44, (3′S)-1′-[4-(6-fluoro-2H-indazol-2-yl)benzoyl]-1,3′-bipyrrolidine], the Ki was less than 10 nM.

`CC1CCCN([C@H]2CCN(C(=O)c3ccc(-n4cnc5ccccc54)cc3)C2)C1` (stereo partly drawn) [Example 8, 1-(4-{[(3S)-3-(3-methylpiperidin-1-yl)pyrrolidin-1-yl]carbonyl}phenyl)-1H-benzimidazole] gave an inhibitory constant (Ki) of less than 10 nM.

`Cc1nc2ccccc2n1-c1ccc(C(=O)N2CC[C@H](N3CCCCC3C)C2)cc1` (stereo partly drawn) [Example 23, 2-methyl-1-(4-{[(3S)-3-(2-methylpiperidin-1-yl)pyrrolidin-1-yl]carbonyl}phenyl)-1H-benzimidazole] registered an inhibition constant (Ki) of less than 10 nM.

`Cc1nc2ccccc2n1-c1ccc(C(=O)N2CC[C@H](N3CCCCCC3)C2)cc1` [Example 20, 1-(4-{[(3S)-3-azepan-1-ylpyrrolidin-1-yl]carbonyl}phenyl)-2-methyl-1H-benzimidazole fumaric acid salt] came in with an inhibition constant Ki of less than 10 nM.

For `N#Cc1ccc2nn(-c3ccc(C(=O)N4CC[C@H](N5CCCC5)C4)cc3)cc2c1` [Example 43, 2-{4-[(3′S)-1,3′-bipyrrolidin-1′-ylcarbonyl]phenyl}-2H-indazole-5-carbonitrile], the Ki is less than 10 nM.

Molecule `O=C(c1ccc(-n2ccc3cc(Br)ccc32)cc1)N1CC[C@H](N2CCCC2)C1` [Example 35, (3′S)-1′-[4-(5-bromo-1H-indol-1-yl)benzoyl]-1,3′-bipyrrolidine] registered a Ki of less than 10 nM.

`O=C(c1ccc(-n2ccc3ccccc32)cc1)N1CC[C@H](N2CCCC2)C1` [Example 30, (3′S)-1′-[4-(1H-indol-1-yl)benzoyl]-1,3′-bipyrrolidine hydrochloride] returned an inhibitory constant (Ki) of less than 10 nM.

For `O=C(c1ccc(-n2ncc3ccc(F)cc32)cc1)N1CC[C@H](N2CCCC2)C1` [Example 41, (3′S)-1′-[4-(6-fluoro-1H-indazol-1-yl)benzoyl]-1,3′-bipyrrolidine], the Ki fell in the range of 10.1 to 25 nM.

`O=C(c1ccc(-n2cnc3ccccc32)cc1)N1CC[C@H](N2CCCCC2)C1` [Example 13, 1-(4-{[(3S)-3-piperidin-1-ylpyrrolidin-1-yl]carbonyl}phenyl)-1H-benzimidazole] showed a Ki of less than 10 nM.

Molecule `Cc1nc2ccccc2n1-c1ccc(C(=O)N2CC[C@H](N3CCN(C)CC3)C2)cc1` [Example 26, 2-methyl-1-(4-{[(3S)-3-(4-methylpiperazin-1-yl)pyrrolidin-1-yl]carbonyl}phenyl)-1H-benzimidazole] gave an inhibition constant Ki greater than 100 nM.

The molecule `Cc1nc2ccccc2n1-c1ccc(C(=O)N2CC[C@H](N3CCC(C)CC3)C2)cc1` [Example 25, 2-methyl-1-(4-{[(3S)-3-(4-methylpiperidin-1-yl)pyrrolidin-1-yl]carbonyl}phenyl)-1H-benzimidazole] had a Ki of 25.1 to 50 nM.

As for `O=C(c1ccc(-n2ccc3c(Cl)cccc32)cc1)N1CC[C@H](N2CCCC2)C1` [Example 32, (3′S)-1′-[4-(4-chloro-1H-indol-1-yl)benzoyl]-1,3′-bipyrrolidine], the inhibitory constant (Ki) is less than 10 nM.

`Cc1nc2ccccc2n1-c1ccc(CN2CC[C@H](N3CCCCCC3)C2)cc1` [Example 18, 1-(4-{[(3S)-3-azepan-1-ylpyrrolidin-1-yl]methyl}phenyl)-2-methyl-1H-benzimidazole] had a Ki of less than 10 nM.

Molecule `O=C(c1ccc(-n2cc3cc(F)ccc3n2)cc1)N1CC[C@H](N2CCCC2)C1` [Example 45, (3′S)-1′-[4-(5-fluoro-2H-indazol-2-yl)benzoyl]-1,3′-bipyrrolidine] gave a Ki of less than 10 nM.

In turn, `CC1CCCCN1[C@H]1CCN(C(=O)c2ccc(-n3cnc4ccccc43)cc2)C1` (stereo partly drawn) [Example 12, 1-(4-{[(3S)-3-(2-methylpiperidin-1-yl)pyrrolidin-1-yl]carbonyl}phenyl)-1H-benzimidazole] registered a Ki of 25.1 to 50 nM.

With `N#Cc1ccc2c(c1)ncn2-c1ccc(C(=O)N2CC[C@H](N3CCCC3)C2)cc1` [Example 48, 1-{4-[(3′S)-1,3′-bipyrrolidin-1′-ylcarbonyl]phenyl}-1H-benzimidazole-5-carbonitrile fumarate], the inhibitory constant (Ki) fell in the range of 25.1 to 50 nM.

`c1ccc2c(c1)ncn2-c1ccc(CN2CC[C@H](N3CCCC3)C2)cc1` [Example 14, (3′S)-1′-[4-(1H-benzimidazol-1-yl)benzyl]-1,3′-bipyrrolidine hydrochloride] displayed a Ki of less than 10 nM.

On to `O=C(c1ccc(-n2ncc3cc(F)ccc32)cc1)N1CC[C@H](N2CCCC2)C1` [Example 40, (3′S)-1′-[4-(5-fluoro-1H-indazol-1-yl)benzoyl]-1,3′-bipyrrolidine], for which the Ki is less than 10 nM.

In the case of `C[C@@H]1CCCN1[C@H]1CCN(C(=O)c2ccc(-n3cnc4ccccc43)cc2)C1` [Example 6, (2R,3′S)-1′-[4-(1H-benzimidazol-1-yl)benzoyl]-2-methyl-1,3′-bipyrrolidine], the inhibition constant Ki fell in the range of 10.1 to 25 nM.

`N#Cc1ccc2c(ccn2-c2ccc(C(=O)N3CC[C@@H](N4CCCC4)C3)cc2)c1` [Example 46, 1-{4-[(3′R)-1,3′-bipyrrolidin-1′-ylcarbonyl]phenyl}-1H-indole-5-carbonitrile] showed an inhibition constant Ki of less than 10 nM.

As to `N#Cc1ccc2c(cnn2-c2ccc(C(=O)N3CC[C@H](N4CCCC4)C3)cc2)c1` [Example 42, 1-{4-[(3′S)-1,3′-bipyrrolidin-1′-ylcarbonyl]phenyl}-1H-indazole-5-carbonitrile], the Ki is less than 10 nM.

The molecule `CN1CCN([C@H]2CCN(C(=O)c3ccc(-n4cnc5ccccc54)cc3)C2)CC1` [Example 10, 1-(4-{[(3S)-3-(4-methylpiperazin-1-yl)pyrrolidin-1-yl]carbonyl}phenyl)-1H-benzimidazole] showed a Ki greater than 100 nM.

As to `O=C(c1ccc(-n2ccc3cccc(Cl)c32)cc1)N1CC[C@H](N2CCCC2)C1` [Example 34, (3′S)-1′-[4-(7-chloro-1H-indol-1-yl)benzoyl]-1,3′-bipyrrolidine], the Ki is less than 10 nM.

Molecule `c1ccc2c(c1)ncn2-c1ccc(CN2CC[C@H](N3CCCCC3)C2)cc1` [Example 15, (1-(4-{[(3S)-3-piperidin-1-ylpyrrolidin-1-yl]methyl}phenyl)-1H-benzimidazolefumaric acid salt] showed a Ki of less than 10 nM.

`Cc1nc2ccccc2n1-c1ccc(CN2CC[C@H](N3CCCC3)C2)cc1` [Example 17, (3′S)-1′-[4-(2-methyl-1H-benzimidazol-1-yl)benzyl]-1,3′-bipyrrolidine] registered an inhibition constant Ki of less than 10 nM.
